According to patent US20260345556A1, “Pharmaceutical Composition for Preventing or Treating Nephritis” (Daewoong Pharmaceutical Co., Ltd., priority 2022, published 2026):

What was measured:
C57BL/6 male mice [1] = assay: Mouse renal failure treatment model by Adenine diet; type: in vivo; conditions: oral once a day 5, 10, 20 mg/kg for 2 weeks, starting 2 weeks after start of adenine
Experimental: A feed containing adenine was administered to C57BL/6 male mice as described in Ali et al. J Pharmacol Toxicol Methods 2013; Jia et al. BMC Nephrol 2013; Tanaka et al. Am J Pathol 2009. Starting 2 weeks after the start of adenine administration, 5 mg/kg, 10 mg/kg and 20 mg/kg of the compounds of Examples were orally administered daily for 2 weeks (FIG. 4). Physiological saline was administered to the negative control group (vehicle). Blood BUN and Creatinine, which are the primary indicators of kidney function, were measured.
Further, the degree of fibrosis of the mouse kidney tissue was measured through immunochemical staining, and the results are shown in FIG. 5.

C57BL/6 male mice [2] = assay: Mouse renal failure prevention model by Adenine diet; type: in vivo; conditions: oral once a day 5, 10, 20 mg/kg for 4 weeks, simultaneously with adenine
Experimental: A feed containing adenine was administered to C57BL/6 male mice as described in Ali et al. J Pharmacol Toxicol Methods 2013; Jia et al. BMC Nephrol 2013; Tanaka et al. Am J Pathol 2009. Simultaneously with the start of adenine administration, 5 mg/kg, 10 mg/kg, and 20 mg/kg of the compounds of Examples were orally administered daily for 4 weeks (FIG. 8). Physiological saline was administered to the negative control group (vehicle). Blood BUN and Creatinine, which are the primary indicators of kidney function, were measured.
Additionally, the degree of fibrosis of the mouse kidney tissue was measured through immunochemical staining.

CD8+ T cells = assay: CD8+ T cell proliferation inhibition (CFSE staining, flow cytometry); type: cell-based; conditions: human blood CD8+ T cells; 1.25, 2.5, 5, 10 μM; 5 days; FIG. 2
Experimental: (§1) PBMCs were transferred to a new tube using a pipette. After RBC lysis buffer was added to PBMC, centrifugation was performed, and then CD8 or CD4 cells were isolated using CD8 MicroBeads (Miltenyl Biotec, 130-045-201) or CD4 MicroBeads (Miltenyl Biotec, 130-096-533). A CFSE (-(and-6)-Carboxyfluorescein Diacetate, Succinimidyl Ester) labeling solution (Invitrogen, C1157) was added to the isolated cells. The compounds of Examples were dissolved in DMSO to make a 5 mM stock, then treated to make 1.25 μM, 2.5 μM, 5 μM, and 10 μM, respectively. After 5 days, the degree of cell proliferation was measured by the amount of CFSE staining using flow cytometry, and the results are shown in FIG. 2.

gdT cells = assay: Inhibition of IL-17 factor in gdT cells (IL-17A ELISA); type: cell-based; conditions: gdT cells from normal human blood; 10 μM; IL-2 and IL-15 10 ng/ml each; FIG. 3
Experimental: After collecting 10 ml of normal human blood, ficoll density gradient medium (Cytiva, 17144003) and PBS, the immune cell layer (PBMC) was isolated using a centrifuge. PBMCs were transferred to a new tube using a pipette. After RBC lysis buffer was added to PBMC, centrifugation was performed, and then 10 ng/ml of human IL-2 and IL-15 protein (cytokine) were respectively added to the cells, and cultured (for the purpose of inducing IL-17A). The compounds of Examples were dissolved in DMSO to make a 5 mM stock, and then 10 μM of the example compound was treated. On the 3rd and 5th days of cytokine treatment, 10 ng/ml of human IL-2 and IL-15 proteins (cytokine) were added, centrifuged, and the supernatant was collected. The IL-17A expression level was confirmed with the collected supernatant using an IL-17A ELISA kit (DY371, R&D Systems), and the results are shown in FIG. 3.

CD4+ T cells = assay: CD4+ T cell proliferation inhibition (CFSE staining, flow cytometry); type: cell-based; conditions: human blood CD4+ T cells; 1.25, 2.5, 5, 10 μM; 5 days; FIG. 2
Experimental: as §1

[3] = system: human primary kidney cells; assay: Fibrotic factor inhibition in human primary kidney cells (western blot); type: cell-based; conditions: 5 ng/ml TGFb, 1.25 µM, 2.5 μM, 5 μM, 48 hours, FIG. 7
Experimental: Digestion buffer was added to human kidney tissue (preserved after biopsy), cut into small pieces with scissors, and then disintegrated through a shaker incubation for 90 minutes. After filtering the disintegrated tissue through a 70 μm filter cell strainer, the remaining tissue was filtered once again using a 40 μm filter cell strainer. The filtered disintegrated tissue solution was centrifuged, and the cells were isolated and cultured. The cultured cells were treated with 5 ng/ml TGFb and […], 2.5 μM, and 5 μM of the compounds of Examples, respectively, and then 48 hours later, cells were harvested, and western blot was performed to quantitatively analyze fibrotic factor proteins.

[4] = system: Rat kidney cell line (NRK-49F cell line); assay: Fibrotic factor inhibition in rat kidney cell line (western blot); type: cell-based; conditions: 5 ng/ml TGFb, 2.5, 5, 10 μM, 48 hours, FIG. 6
C57BL/6 male mice [5] = assay: NTN (Nephrotoxic Serum-Induced Nephritis) model; type: in vivo, mouse; conditions: oral 5, 10, 20 mg/kg for 7 days from disease induction
Experimental: After sensitizing C57BL/6 male mice with 200 μg sheep IgG and Freund's […] adjuvant, 10 μg of sheep nephrotoxic serum was injected after five days to induce disease. From the day the disease was induced, the compounds of Examples were orally administered at doses of 5 mg/kg, 10 mg/kg, and 20 mg/kg for 7 days, respectively. Saline was administered to the negative control group (vehicle). On day 8, renal function (uPCR, BUN) was assessed.
The NTN model is a glomerulonephritis model that causes inflammation in the glomeruli, which induces proteinuria.

In the case of O[C@H]1CCCN[C@@H]1CCCn1cnc2c(Cl)c(Cl)ccc21 [Example], the “deterioration of renal function (blood BUN and Creatinine)” value (C57BL/6 male mice [1]; FIG. 4) is reported as “significantly inhibited in a dose-dependent manner”, the “accumulation of collagen in renal tissue (immunochemical staining)” value (C57BL/6 male mice [1]; FIG. 5) is reported as “significantly inhibited in a dose-dependent manner” and the “deterioration of renal function (blood BUN and Creatinine)” value (C57BL/6 male mice [2]; FIG. 8) is reported as “significantly inhibited in a dose-dependent manner”. The “preventive effect on kidney damage caused by Adenine diet” value (C57BL/6 male mice [2]; FIG. 8) was “exhibited preventive effect”, the “collagen accumulation in renal tissue (immunochemical staining)” value (C57BL/6 male mice [2]; FIG. 9) was “significantly inhibited in a dose-dependent manner” and the “CD8+ T cell proliferation” value (CD8+ T cells) was “cell proliferation is inhibited”. The IL-17 cytokine inhibition (gdT cells) was “inhibited”, the “CD4+ T cell proliferation” value (CD4+ T cells) was “cell proliferation is inhibited” and the fibrotic factor collagen [3] was “significantly inhibited”. For the same compound, the fibrotic factor fibronectin [3] was “significantly inhibited”, the “fibrotic factor αSMA” value [3] was “significantly inhibited” and the fibrotic factor collagen [4] was “significantly inhibited”. The “fibrotic factor fibronectin” value [4] was “significantly inhibited”, the “fibrotic factor αSMA” value [4] was “significantly inhibited” and the “effect on damaged glomerular tissue” value (C57BL/6 male mice [5]; FIG. 10 and FIG. 11 (immunochemical staining)) was “effective in damaged glomerular tissue”. The “proteinuria (uPCR)” value (C57BL/6 male mice [5]; assessed day 8, PRSi 5 mg/kg on the left side of FIG. 10) was “significantly reducing proteinuria”.
